Marks after values point to notes of the source that are not given here.
Biological target: T1, Dopamine beta hydroxylase (Homo sapiens, UniProt P09172)
T1 construct: 125 μl of plasma; tissue Instituto Português do Sangue Transplantação; host or cells: human plasma from healthy donors
T1 sequence (P09172 40-617 limits assumed): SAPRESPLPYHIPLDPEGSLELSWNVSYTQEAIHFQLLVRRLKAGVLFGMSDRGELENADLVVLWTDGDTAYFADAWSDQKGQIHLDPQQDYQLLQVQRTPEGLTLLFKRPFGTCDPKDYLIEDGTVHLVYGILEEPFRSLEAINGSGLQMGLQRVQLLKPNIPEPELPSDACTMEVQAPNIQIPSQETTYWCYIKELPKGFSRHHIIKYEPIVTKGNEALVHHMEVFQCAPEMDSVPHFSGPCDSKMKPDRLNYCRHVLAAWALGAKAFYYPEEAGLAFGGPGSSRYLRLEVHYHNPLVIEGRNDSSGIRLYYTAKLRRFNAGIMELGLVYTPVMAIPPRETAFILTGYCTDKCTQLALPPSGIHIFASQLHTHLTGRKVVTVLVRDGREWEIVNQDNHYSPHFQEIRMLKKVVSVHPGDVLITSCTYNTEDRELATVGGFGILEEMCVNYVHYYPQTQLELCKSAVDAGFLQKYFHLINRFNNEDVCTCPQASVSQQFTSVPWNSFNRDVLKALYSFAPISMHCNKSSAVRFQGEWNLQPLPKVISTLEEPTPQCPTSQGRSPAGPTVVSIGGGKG
Experiment: Dopamine beta hydroxylase activity in human plasma
Format: biochemical
Conditions: for Plasma (1 μM), activity in % of control: inhibitor 1 μM
Experimental: Furthermore, the ability of a compound to inhibit DβH activity may be assessed in human plasma using the following assay. […]. Dopamine beta hydroxylase activity in human plasma was measured by the method of Nagatsu and Udenfriend (Nagatsu, T. and Udenfriend, S. “Photometric assay of dopamine-μ-hydroxylase activity in human blood.” Clin. Chem. 18(9) 980-983, 1972) with minor modifications. Catalase, N-ethylmaleimide, tyramine, disodium fumarate, pargyline, sodium acetate, ascorbic acid, copper sulfate and octopamine were obtained from Sigma Chemical Co., St. Louis, Mo. 63178. Human plasma samples were obtained from healthy donors (Instituto Português do Sangue Transplantação, Centro Sangue Transplantação, Porto, Portugal). From date of collection, plasma was stored at −80° C. until use. Test compounds were initially prepared in dimethyl sulfoxide at a concentration of 10 mM and diluted in dimethyl sulfoxide to the required concentrations. Test compounds were further diluted in ultrapure water to a concentration 20-fold to that of the final concentration to be tested. Final concentrations of test compounds were 10, 100 and 1000 nM. The various reagents used to make up the incubation buffer were premixed and consisted of the following components: sodium acetate buffer (1 M, pH 5.0, 18 ml), sodium fumarate (0.2 M, 4.5 ml), ascorbic acid (0.2 M, 4.5 ml, freshly prepared), pargyline (20 mM, freshly prepared, 4.5 ml), N-ethylmaleimide (0.2 M, 4.5 ml), catalase (10 000 U/ml, 9 ml), copper sulfate (20 μM, 4.5 ml) and 4.5 ultrapure water. The standard incubation mixture (total volume, 950 μl) contained: 50 μL of compound or vehicle (dimethyl sulfoxide 2%); 700 μL of incubation buffer; 125 μl of plasma (or saline for blank reaction or standard curve); 75 μl of saline. The reaction mixture was placed in water bath, shaking at 37° C. and pre-incubated for 10 minutes. Tyramine (0.5 M) was added and incubation proceeded for 45 minutes. The reaction contents were exposed to air. A sample of enzyme preparation (with 125 μl of plasma) that had been added perchloric acid 2 M at the end of the pre-incubation period was used as blank. A blank for each of the tested compounds was used. For octopamine standard curve, perchloric acid 2 M was replaced by increasing concentrations of octopamine prepared in perchloric acid 2 M (0.5, 1, 2.5, 5, 7.5, 10, 15, 20 μg/ml, final concentration). The incubation was stopped by adding 200 μl of 2 M molar perchloric acid, and the mixture was centrifuged at 9000 g for 5 min. The supernatant fluid (800 μL) was transferred to a column (SPE cartridge ISOLUTE SCX-3, 100 mg) and centrifuged at 150 g for 2 min. The column was washed two more times with 0.5 ml of ultrapure water by centrifuging at 150 g for 2 min. The adsorbed octopamine was eluted twice with 0.3 ml of 4 M ammonium hydroxide by centrifuging at 150 g for 2 min. Octopamine in the eluate was then converted to p-hydroxybenzaldehyde by adding 200 μl of sodium periodate (2%) and incubating for 6 min. Excess periodate was than reduced by adding 200 μl of sodium metabisulfite (10%). Absorbance was measured at […] in a 96-well plate by use of a SpectraMAX plus 384 (Molecular Devices) with software SOFTmax® PRO Software 5.3 spectrophotometer. Absorbance was linear with octopamine concentration from 0.5 to 20 μg/ml. Dopamine beta hydroxylase activity is determined as nmol of octopamine formed/ml of plasma/hour and effect of compounds is presented as % control.
Results are reported in the table below as activity in % of control at the inhibitor concentration tested.

| SMILES | Plasma (0.01 μM), activity in % of control (inhibitor 0.01 μM) | Plasma (0.1 μM), activity in % of control (inhibitor 0.1 μM) | Plasma (1 μM), activity in % of control | Plasma (0.01 μM), activity in % of control, re-test (asterisked) (inhibitor 0.01 μM, re-tested under the same experimental conditions, asterisked data believed to be correct) | Plasma (0.1 μM), activity in % of control, re-test (asterisked) (inhibitor 0.1 μM, re-tested under the same experimental conditions, asterisked data believed to be correct) |
| --- | --- | --- | --- | --- | --- |
| Cn1c(CC(=O)NCC#N)c2n(c1=S)C[C@@]1(c3cc(Br)ccc3F)C[C@@H]21 [Example 305, 2-((5aS,6aR)-5a-(5-bromo-2-fluorophenyl)-2-methyl-3-thioxo-2,3,5,5a,6,6a-hexahydrocyclopropa[3,4]pyrrolo[1,2-c]imidazol-1-yl)-N-(cyanomethyl)acetamide] | 61.2 % of control | 12.2 % of control |  |  |  |
| CN(C(=O)Cc1c2n(c(=S)n1C)C[C@@H](c1c(F)c(F)cc(F)c1F)C2)C1COC1 [Example 398, (R)—N-methyl-2-(2-methyl-6-(2,3,5,6-tetrafluorophenyl)-3-thioxo-2,5,6,7-tetrahydro-3H-pyrrolo[1,2-c]imidazol-1-yl)-N-(oxetan-3-yl)acetamide] | 94.3 % of control | 23.0 % of control |  |  |  |
| Cn1c(CC(=O)NC2CCOCC2)c2n(c1=S)C[C@@]1(c3cc(Cl)ccc3F)C[C@@H]21 [Example 313, 2-((5aS,6aR)-5a-(5-chloro-2-fluorophenyl)-2-methyl-3-thioxo-2,3,5,5a,6,6a-hexahydrocyclopropa[3,4]pyrrolo[1,2-c]imidazol-1-yl)-N-(tetrahydro-2H-pyran-4-yl)acetamide] | 37.6 % of control | 9.6 % of control |  |  |  |
| Cn1c(CCO)c2n(c1=S)C[C@H](c1c(F)ccc(Br)c1F)C2 [Example 456, (S)-6-(3-bromo-2,6-difluorophenyl)-1-(2-hydroxyethyl)-2-methyl-2,5,6,7-tetrahydro-3H-pyrrolo[1,2-c]imidazole-3-thione] | 86.8 % of control | 20.2 % of control |  |  |  |
| Fc1cc(F)c(F)c([C@H]2Cc3c(CCc4ccncc4)[nH]c(=S)n3C2)c1F [Example 218, (R)-1-(2-(pyridin-4-yl)ethyl)-6-(2,3,5,6-tetrafluorophenyl)-2,5,6,7-tetrahydro-3H-pyrrolo[1,2-c]imidazole-3-thione] | 89.2 % of control | 69.1 % of control |  |  |  |
| O=C(Cc1[nH]c(=S)n2c1C[C@@H](c1c(F)ccc(Br)c1F)C2)N1CCC2(CCOC2)CC1 [Example 165, (S)-2-(6-(3-bromo-2,6-difluorophenyl)-3-thioxo-2,5,6,7-tetrahydro-3H-pyrrolo[1,2-c]imidazol-1-yl)-1-(2-oxa-8-azaspiro[4.5]decan-8-yl)ethan-1-one] | 74.3 % of control | 14.8 % of control |  |  |  |
| Cc1noc(Cc2[nH]c(=S)n3c2C[C@@H](c2c(F)ccc(Cl)c2F)C3)n1 [Example 228, (S)-6-(3-chloro-2,6-difluorophenyl)-1-((3-methyl-1,2,4-oxadiazol-5-yl)methyl)-6,7-dihydro-2H-pyrrolo[1,2-c]imidazole-3(5H)-thione] | 90.2 % of control | 56.0 % of control |  |  |  |
| C[C@@H](NCCc1[nH]c(=S)n2c1C[C@H](c1c(F)ccc(Br)c1F)C2)C1CCCCC1 [Example 184, (R)-6-(3-bromo-2,6-difluorophenyl)-1-(2-(((R)-1-cyclohexylethyl)amino)ethyl)-2,5,6,7-tetrahydro-3H-pyrrolo[1,2-c]imidazole-3-thione] | 89.2 % of control | 43.7 % of control |  |  |  |
| O=C(Cc1[nH]c(=S)n2c1C[C@@H](c1c(F)ccc(Br)c1F)C2)NCCO [Example 93, (S)-2-(6-(3-bromo-2,6-difluorophenyl)-3-thioxo-2,5,6,7-tetrahydro-3H-pyrrolo[1,2-c]imidazol-1-yl)-N-(2-hydroxyethyl)acetamide] |  | 32.1 % of control | 1.0 % of control |  |  |
| O=C(Cc1[nH]c(=S)n2c1C[C@@H](c1c(F)ccc(Cl)c1F)C2)NC1CCCC1 [Example 84, (S)-2-(6-(3-chloro-2,6-difluorophenyl)-3-thioxo-2,5,6,7-tetrahydro-3H-pyrrolo[1,2-c]imidazol-1-yl)-N-cyclopentylacetamide] |  | 24.5 % of control | 1.0 % of control |  |  |
| CN(CCc1[nH]c(=S)n2c1C[C@@H](c1c(F)ccc(Cl)c1F)C2)C(=O)c1cccnc1 [Example 226, (S)—N-(2-(6-(3-chloro-2,6-difluorophenyl)-3-thioxo-2,5,6,7-tetrahydro-3H-pyrrolo[1,2-c]imidazol-1-yl)ethyl)-N-methylnicotinamide] | 100.8 % of control | 47.4 % of control |  |  |  |
| N#CCNC(=O)Cc1[nH]c(=S)n2c1C[C@H](c1c(F)c(F)cc(F)c1F)C2 [Example 27, (R)—N-(cyanomethyl)-2-(6-(2,3,5,6-tetrafluorophenyl)-3-thioxo-2,5,6,7-tetrahydro-3H-pyrrolo[1,2-c]imidazol-1-yl)acetamide] |  | 51.6 % of control | 7.6 % of control |  |  |
| O=C(NCc1[nH]c(=S)n2c1C[C@@H](c1c(F)ccc(Cl)c1F)C2)C1CCOCC1 [Example 222, (S)—N-((6-(3-chloro-2,6-difluorophenyl)-3-thioxo-2,5,6,7-tetrahydro-3H-pyrrolo[1,2-c]imidazol-1-yl)methyl)tetrahydro-2H-pyran-4-carboxamide] | 73.6 % of control | 12.9 % of control |  |  |  |
| Cl.Fc1cc(F)c(F)c([C@H]2Cc3c(CCN4CCCC4)[nH]c(=S)n3C2)c1F [Example 198, (R)-1-(2-(pyrrolidin-1-yl)ethyl)-6-(2,3,5,6-tetrafluorophenyl)-2,5,6,7-tetrahydro-3H-pyrrolo[1,2-c]imidazole-3-thione Hydrochloride] | 52.2 % of control | 11.1 % of control |  | 84.5* % of control | 99.1* % of control |
| CS(=O)(=O)NC(=O)Cc1[nH]c(=S)n2c1C[C@@H](c1c(F)ccc(Br)c1F)C2 [Example 20, (S)-2-(6-(3-bromo-2,6-difluorophenyl)-3-thioxo-2,5,6,7-tetrahydro-3H-pyrrolo[1,2-c]imidazol-1-yl)-N-(methylsulfonyl)acetamide] |  | 31.0 % of control | 2.6 % of control |  |  |

Reference: patent US11434242B2, “Dopamine-b-hydroxylase inhibitors” (BIAL-PORTELA & Cª, S.A., priority 2017, dated 2022)
